We go through 13 molecules from patent publication US8492559B2, “Substituted indole compounds” (Gruenenthal GmbH, priority 2009, dated 2013).

For one assay, the target named is T1, B1R receptor of the rat (rB1R) (Rattus norvegicus, UniProt P97583).
T1 construct: expressed in transfected cells; host or cells: CHO K1 cells
T1 sequence (P97583 1-337): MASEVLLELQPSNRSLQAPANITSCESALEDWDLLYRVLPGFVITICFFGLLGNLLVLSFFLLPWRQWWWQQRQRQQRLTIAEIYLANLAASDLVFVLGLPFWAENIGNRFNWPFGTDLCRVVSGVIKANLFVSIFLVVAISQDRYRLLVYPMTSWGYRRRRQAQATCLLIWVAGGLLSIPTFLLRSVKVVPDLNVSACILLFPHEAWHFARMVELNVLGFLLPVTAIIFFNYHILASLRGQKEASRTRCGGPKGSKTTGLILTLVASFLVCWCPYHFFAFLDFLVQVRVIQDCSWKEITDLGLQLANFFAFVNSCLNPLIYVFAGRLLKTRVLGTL
Nature of the assay: Functional investigation on the bradykinin 1 receptor (B1R), FLIPR Ca2+ assay, rB1R cells. Format: cell-based. The following applies: 10 μM test substance; CHO K1 cells with rat B1R; agonist Des-Arg9 bradykinin; % of maximum achievable inhibition; 10 µM. The essentials:
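Ca2+ influx is measured as peak Fluo-4 fluorescence in a FLIPR protocol with two substance additions, following Lys-Des-[MUT] bradykinin (0.5 nM) or Des-[MUT] bradykinin (100 nM) challenge. Varying antagonist concentrations give % inhibition relative to maximum achievable and an IC50. Determinations in duplicate or triplicate, repeated independently (N>=2).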
With `O=C(CCn1ccc2ccc(N3Cc4cccc(Cl)c4C3=O)cc21)N1CCC2(CC1)CCN(c1ccncc1)CC2` [G_CC-67, 7-Chloro-2-[1-[3-oxo-3-(3-pyridin-4-yl-3,9-diazaspiro[5.5]undecan-9-yl)-propyl]-1H-indol-6-yl]-2,3-dihydro-isoindol-1-one], the “B1R antagonism, rat [10 μM] % inhibition” value was found to be 95%.

The same assay, now with this note: CHO-K1, 10 μM test substance; CHO K1 cells with rat B1R; agonist Des-Arg9 bradykinin; % of maximum achievable inhibition; read-out: B1R antagonism, rat [10 μM] % inhibition.
In the case of `O=C(Cn1ccc2ccc(N3CCn4c(c(Cl)c5ccccc54)C3=O)cc21)N1CCC2(CC1)CCN(c1ccncc1)CC2` [Compound G-31, 10-Chloro-2-[1-[2-oxo-2-(9-pyridin-4-yl-3,9-diazaspiro[5.5]undecan-3-yl)-ethyl]-1H-indol-6-yl]-3,4-dihydro-2H-pyrazino[1,2-a]indol-1-one], the inhibition (in general, the change of the read-out against control, counted positive when it falls) at 10 µM is 54%.

With `O=C(Cn1ccc2ccc(N3CCn4ccc(Cl)c4C3=O)cc21)N1CCC2(CC1)CCN(c1ccncc1)CC2` [Compound G-33, 8-Chloro-2-[1-[2-oxo-2-(9-pyridin-4-yl-3,9-diazaspiro[5.5]undecan-3-yl)-ethyl]-1H-indol-6-yl]-3,4-dihydro-2H-pyrrolo[1,2-a]pyrazin-1-one], the inhibition at 10 µM was determined as 46%.

Consider `COc1cc(C)c(S(=O)(=O)Nc2ccc3ccn(CC(=O)N4CCC(N5CCN(C)CC5)CC4)c3c2)c(C)c1` [G_CC-2, 4-Methoxy-2,6-dimethyl-N-[1-[2-[4-(4-methyl-piperazin-1-yl)-piperidin-1-yl]-2-oxo-ethyl]-1H-indol-6-yl]-benzenesulfonic acid amide], for which the inhibition at 10 µM worked out at 70%. Regarding `Cc1cc(S(=O)(=O)Nc2ccc3ccn(CC(=O)N4CCN(CC5CCN(C)CC5)CC4)c3c2)c(C)cc1Cl` [G_CC-8, 4-Chloro-2,5-dimethyl-N-[1-[2-[4-[(1-methyl-piperidin-4-yl)-methyl]-piperazin-1-yl]-2-oxo-ethyl]-1H-indol-6-yl]-benzenesulfonic acid amide], the inhibition at 10 µM came to 100%. Take `COc1cc(C)c(S(=O)(=O)Nc2cccc3ccn(CC(=O)N4CCC5(CC4)CCN(Cc4ccccc4)C5=O)c23)c(C)c1` [G_CC-32, N-[1-[2-(3-Benzyl-4-oxo-3,8-diazaspiro[4.5]decan-8-yl)-2-oxo-ethyl]-1H-indol-7-yl]-4-methoxy-2,6-dimethyl-benzenesulfonic acid amide]: the inhibition at 10 µM stood at 101%. `COc1cc(C)c(S(=O)(=O)Nc2cccc3ccn(CCC(=O)N4CCN(CC5CCN(C)CC5)CC4)c23)c(C)c1` [G_CC-43, 4-Methoxy-2,6-dimethyl-N-[1-[3-[4-[(1-methyl-piperidin-4-yl)-methyl]-piperazin-1-yl]-3-oxo-propyl]-1H-indol-7-yl]-benzenesulfonic acid amide]: the inhibition at 10 µM came to 103%. Still for that read-out and setting: the value for `COc1cc(C)c(S(=O)(=O)Nc2cccc3ccn(CCC(=O)NCCC4CCN(c5ccncc5)CC4)c23)c(C)c1` [G_CC-47, 3-[7-[[(4-Methoxy-2,6-dimethyl-phenyl)sulfonyl]amino]-1H-indol-1-yl]-N-[2-(1-pyridin-4-yl-piperidin-4-yl)-ethyl]-propionamide] was 102%.

Consider `COc1cc(C)c(S(=O)(=O)Nc2cccc3ccn(CCC(=O)N4CCC5(CC4)CCN(c4ccncc4)CC5)c23)c(C)c1` [G_CC-54, 4-Methoxy-2,6-dimethyl-N-[1-[3-oxo-3-(3-pyridin-4-yl-3,9-diazaspiro[5.5]undecan-9-yl)-propyl]-1H-indol-7-yl]-benzenesulfonic acid amide], for which the inhibition at 10 µM was 96%. Take `Cc1cc(S(=O)(=O)Nc2cccc3ccn(CCC(=O)N4CCN(CC5CCN(C)CC5)CC4)c23)c(C)cc1Cl` [G_CC-62, 4-Chloro-2,5-dimethyl-N-[1-[3-[4-[(1-methyl-piperidin-4-yl)-methyl]-piperazin-1-yl]-3-oxo-propyl]-1H-indol-7-yl]-benzenesulfonic acid amide]: the inhibition at 10 µM stood at 99%.

Turning to `COc1cc(C)c(S(=O)(=O)Nc2ccc3ccn(CC(=O)N(C)CCCN4CCN(c5ccncc5)CC4)c3c2)c(C)c1` [G_CC-76, 2-[6-[[(4-Methoxy-2,6-dimethyl-phenyl)sulfonyl]amino]-1H-indol-1-yl]-N-methyl-N-[3-(4-pyridin-4-yl-piperazin-1-yl)-propyl]-acetamide], the inhibition at 10 µM is 104%. Same read-out and setting: then `COc1cc(C)c(S(=O)(=O)Nc2cccc3ccn(CC(=O)N(C)CCCN4CCN(c5ccncc5)CC4)c23)c(C)c1` [G_CC-88, 2-[7-[[(4-Methoxy-2,6-dimethyl-phenyl)sulfonyl]amino]-1H-indol-1-yl]-N-methyl-N-[3-(4-pyridin-4-yl-piperazin-1-yl)-propyl]-acetamide], with 101%; and `COc1cc(C)c(S(=O)(=O)Nc2cccc3ccn(CC(=O)N4CCC5(CC4)CCN(c4ccncc4)CC5)c23)c(C)c1` [G_CC-91, 4-Methoxy-2,6-dimethyl-N-[1-[2-oxo-2-(3-pyridin-4-yl-3,9-diazaspiro-[5.5]undecan-9-yl)-ethyl]-1H-indol-7-yl]-benzenesulfonic acid amide], with 100%.
